# Measured values published in patent US20240082222A1, “4-CHLORO-N-[2-[(4-CHLOROPHENYL)METHYL]-3-OXO-1,2,4-THIADIAZOL-5-YL]BENZAMIDE FOR USE IN MEDICINE” (Betagenon AB, priority 2021, published 2024).
# “And” between values parts separate entries of the source, which are not always exact repeats. Identical values can stand only once. Counter-ions that a name gives are not always drawn. Like-named read-outs stand apart in the source and are kept apart here.
# Assay: Pharmacokinetic study in humans, sodium salt in enteric capsules, single and multiple dose (Example 2)
# Format: in vivo, human
# Conditions: for AUClast_D / Cmax D / AUC_TAU_D: dose-normalised; for AUC(0-t) / Cmax / Tmax / AUC / concentration at 24 h: human, plasma, oral; for Cmax: read-out: Cmax; for Tmax: read-out: Tmax; for concentration at 24 h: read-out: Clast
# Procedure: An open, randomised, parallel-group study in healthy volunteers (hereafter referred to as subjects) was conducted to evaluate the exposure of 4-chloro-N-[2-[(4-chlorophenyl)methyl]-3-oxo-1,2,4-thiadiazol-5-yl]benzamide after single and multiple dose administration of 3 dose levels of the sodium salt of 4-chloro-N-[2-[(4-chlorophenyl)methyl]-3-oxo-1,2,4-thiadiazol-5-yl]benzamide and to evaluate combination with dapagliflozin at steady state.
# For the study, Vcaps enteric capsules, size 0, were individually filled with 200 mg of milled test material together with 2 mg of sodium docusate, 125 mg of mannitol and 6.5 mg of sodium lauryl sulfate. […]
# A screening visit (Visit 1) was performed within 28 days before randomisation and the start of IMP administration. The subjects were confined to the research clinic from the evening before Day 1 (Visit 2; Day—1). […]
# Pre-dose safety assessments as well as pre- and post-dose PK assessments were performed. The subjects left the clinic after the last PK-sample on Day 1 and returned for a 24 h PK sample and dosing on Day 2 (Visit 3).
# Subjects self-administered the test material at home from Day 3 to Day 15. A telephone visit to check compliance, AE status and use of concomitant medications will be performed on Day 8 (Visit 4).
# The subjects returned to the clinic on Days 16 and 17 (Visits 5 and 6), for PK sampling and AE assessment. Visit 6 continued in the evening of Day 17, when the subjects were confined to the clinic until Day 18. On Day 18, pre- and post-dose PK and safety assessments were performed. The subjects left the clinic after the last PK sample on Day 18 and returned for a 24 h PK sample and dosing on Day 19 (Visit 7).
# On Day 19 (Visit 7) subjects began co-administration of the test material and dapagliflozin (Forxiga), 10 mg per day for 7 days (Day 19 to Day 25). The subjects returned to the clinic on Day 25 (Visit 8) for final dosing, PK and safety assessments. A final end-of-study visit (Visit 9) for follow-up of safety assessments was conducted 28 days (+14 days) after Visit 8 or after early withdrawal.
# Venous blood samples (approximately 5 mL) for the determination of plasma concentrations of 4-chloro-N-[2-[(4-chlorophenyl)methyl]-3-oxo-1,2,4-thiadiazol-5-yl]benzamide after administration of the test material were collected through an indwelling venous catheter on Days 1, 2, 16 to 19 and 25.
# The blood samples were collected in pre-labelled Li-Heparin tubes. All the collected blood samples were be centrifuged at 1500 G for 10 minutes to separate plasma within 60 minutes from the sample is drawn. The separated plasma from each blood sample was be divided into 2 aliquots in pre-labelled polypropylene cryotubes (A and B samples, approximately 750 μL in each tube) and frozen at <−70° C. On Day 25, the plasma was divided in to 3 aliquots of at least 500 μL (A and B samples for the test material, and 1 sample for potential future analysis of dapagliflozin).
# Samples for determination of plasma concentrations of 4-chloro-N[2-[(4-chlorophenyl)methyl]-3-oxo-1,2,4-thiadiazol-5-yl]benzamide were analysed by Lablytica Life Science AB, Uppsala, Sweden by means of a validated LS-MS/MS method.
# The data of plasma concentration to respective time points for the analyte (4-chloro-N-[2-[(4-chlorophenyl)methyl]-3-oxo-1,2,4-thiadiazol-5-yl]benzamide) were used for the pharmacokinetic analysis. Pharmacokinetic analysis was performed using non-compartmental analysis (NCA) module of Phoenix WinNonlin 8.1 software to determine the following pharmacokinetic parameters.
# After single dose administration of test material: • AUC0-24, Cmax, Tmax and dose proportionality (based on AUC0-24 and Cmax) (secondary endpoints). […]
# [1] = 2000 mg Dose Group, capsule once daily, Day 18, Mean
# [2] = 2000 mg Dose Group, capsule once daily, Day 18, Median
# [3] = capsule once daily, Day 18, individual subjects, listed as test material
# [4] = 200 mg, mean, dose group 200, capsule, Day 1
# [5] = 200 mg, mean, dose group 200, capsule, Day 18
# [6] = 400 mg, 400 mg Dose Group, capsules once daily, Day 18, Geometric Mean
# [7] = 400 mg, 400 mg Dose Group, capsules once daily, Day 18, Mean
# [8] = 400 mg, 400 mg Dose Group, capsules once daily, Day 18, Median
# [9] = 400 mg, 400 mg Dose Group, capsules once daily, Day 18, individual subjects
# [10] = 400 mg, mean, dose group 400, capsule, Day 1
# [11] = 400 mg, mean, dose group 400, capsule, Day 18
# [12] = 800 mg, 800 mg Dose Group, capsules once daily, Day 18, Geometric Mean
# [13] = 800 mg, 800 mg Dose Group, capsules once daily, Day 18, Mean
# [14] = 800 mg, 800 mg Dose Group, capsules once daily, Day 18, Median
# [15] = 800 mg, 800 mg Dose Group, capsules once daily, Day 18, individual subjects
# [16] = 800 mg, mean, dose group 800, capsule, Day 1
# [17] = 800 mg, mean, dose group 800, capsule, Day 18
# [18] = 2000 mg, 2000 mg Dose Group, capsule once daily, Day 18, Geometric Mean
# [19] = 2000 mg, 2000 mg Dose Group, capsule once daily, Day 18, Mean
# [20] = 2000 mg, 2000 mg Dose Group, capsule once daily, Day 18, Median
smiles,measurement,setting,value
"O=C(Nc1nc(=O)n(Cc2ccc(Cl)cc2)s1)c1ccc(Cl)cc1 [Compound of formula II, sodium salt of 4-chloro-N-[2-[(4-chlorophenyl)methyl]-3-oxo-1,2,4-thiadiazol-5-yl]benzamide]",AUClast_D,[1],5.305 µg·h/mL/mg
same,Cmax D,[1],0.2493 µg/mL/mg
same,AUC_TAU_D,[2],4.752 µg·h/mL/mg
same,AUClast_D,[2],4.888 µg·h/mL/mg
same,Cmax D,[2],0.2403 µg/mL/mg
same,AUC_TAU_D,"2000 mg Dose Group, capsule once daily, Day 18, individual subjects, listed as test material",5.67 µg·h/mL/mg and 4.2 µg·h/mL/mg and 8.01 µg·h/mL/mg and 4.01 µg·h/mL/mg and 4.75 µg·h/mL/mg and 3.87 µg·h/mL/mg and 5.06 µg·h/mL/mg
same,AUClast_D,[3],5.65 µg·h/mL/mg and 6.98 µg·h/mL/mg and 4.19 µg·h/mL/mg and 7.98 µg·h/mL/mg and 4 µg·h/mL/mg and 4.74 µg·h/mL/mg and 3.86 µg·h/mL/mg and 5.04 µg·h/mL/mg
same,Cmax D,[3],0.261 µg/mL/mg and 0.31 µg/mL/mg and 0.21 µg/mL/mg and 0.36 µg/mL/mg and 0.201 µg/mL/mg and 0.231 µg/mL/mg and 0.173 µg/mL/mg and 0.25 µg/mL/mg
same,AUC(0-t),[4],87.4 µg·h/mL
same,Cmax,[4],7.19 µg/mL
same,Tmax,[4],15 h
same,AUC(0-t),[5],1060 µg·h/mL
same,Cmax,[5],49.9 µg/mL
same,Tmax,[5],8.03 h
same,Cmax,"200 mg, repeated dosing, study of Example 2",~50 µg/mL
same,AUC,[6],1500 µg·h/mL
same,AUC(0-t),[6],1520 µg·h/mL
same,Cmax,[6],69.6 µg/mL
same,Tmax,[6],4.27 h
same,AUC,[7],1530 µg·h/mL
same,AUC(0-t),[7],1540 µg·h/mL
same,Cmax,[7],70.8 µg/mL
same,Tmax,[7],8.31 h
same,AUC,[8],1400 µg·h/mL
same,AUC(0-t),[8],1480 µg·h/mL
same,Cmax,[8],66.1 µg/mL
same,Tmax,[8],5 h
same,AUC,[9],1210 µg·h/mL
same,AUC(0-t),[9],1210 µg·h/mL
same,Cmax,[9],56.2 µg/mL
same,AUC(0-t),[10],158 µg·h/mL
same,Cmax,[10],10.6 µg/mL
same,Tmax,[10],15.4 h
same,AUC(0-t),[11],1540 µg·h/mL
same,Cmax,[11],70.8 µg/mL
same,Tmax,[11],8.31 h
same,AUC,[12],2530 µg·h/mL
same,AUC(0-t),[12],2590 µg·h/mL
same,concentration at 24 h,[12],108 µg/mL
same,Cmax,[12],118 µg/mL
same,AUC,[13],2560 µg·h/mL
same,AUC(0-t),[13],2620 µg·h/mL
same,concentration at 24 h,[13],110 µg/mL
same,Cmax,[13],118 µg/mL
same,Tmax,[13],11.5 h
same,AUC,[14],2730 µg·h/mL
same,AUC(0-t),[14],2670 µg·h/mL
same,concentration at 24 h,[14],115 µg/mL
same,Cmax,[14],122 µg/mL
same,Tmax,[14],9.99 h
same,AUC,[15],1810 µg·h/mL
same,AUC(0-t),[15],1800 µg·h/mL
same,concentration at 24 h,[15],73.7 µg/mL
same,Cmax,[15],87.3 µg/mL
same,AUC(0-t),[16],340 µg·h/mL
same,Cmax,[16],22.8 µg/mL
same,Tmax,[16],15.6 h
same,AUC(0-t),[17],2620 µg·h/mL
same,Cmax,[17],118 µg/mL
same,Tmax,[17],11.5 h
same,AUC,[18],987 µg·h/mL
same,AUC(0-t),[18],1030 µg·h/mL
same,Cmax,[18],48.6 µg/mL
same,AUC,[19],1020 µg·h/mL
same,AUC(0-t),[19],1060 µg·h/mL
same,concentration at 24 h,[19],44 µg/mL
same,Cmax,[19],49.9 µg/mL
same,Tmax,[19],8.03 h
same,AUC,[20],950 µg·h/mL
same,AUC(0-t),[20],978 µg·h/mL
same,Cmax,[20],48.1 µg/mL
same,Tmax,[20],6.5 h
same,peak blood plasma concentration,repeated dosing of 200 mg in the form of a capsule,≥ 50 µg/mL
same,blood plasma concentration versus same amount of free base form,"repeated dosing, 200 to 1000 mg/day",approximately five-fold higher
